Results reported in US10174067B2, “Type of cytidine derivative and application thereof” (priority 2014, dated 2019).
Marks after values point to notes of the source that are not given here.

What was measured:
[1] = test system: ICR mice; test: in vivo; conditions: female ICR mice; single-dose ip
Procedure: This experiment was to investigate the toxic effects of single-dose intraperitoneal administration on ICR mice and determine the maximum tolerated dose (MTD) of each subject. Maximum tolerated dose (MTD) refers to the dose that may not cause an animal to die, may not cause the animal to suffer weight loss exceeding 10% (compared with Day 0), or may not produce significant side effects.
(§1) The corresponding amount of test substance was taken in a 5 mL glass tube and dissolved in ethanol with a 5 mm magnetic stirrer for stirring. After dissolving completely, Cremophor EL was added with continuous stirring. The marked amount of saline was added and mixed evenly before use. The volume ratio of ethanol, Cremophor EL, and physiological saline was 5:5:90.
Varieties and lines: ICR mice; level: SPF; sex: female.
Method of administration: ip. The dose was reduced in case of animal death, till an animal survived; the dose was increased in case of no animal death; the test was ended when the animals survived normally at the given high dose. Finally, the MTD of the mice on the test substances was determined according to the test results. The animals were observed continuously for 7 days after acute administration.
During the experiment, all animals were under detailed and continuous clinical observation for […], twice a day (10:00 am, 16:00 pm) after administration. The observation included but not limited to: skin, hair, ear, nose, mouth, chest, abdomen, external genitalia, limbs and feet, respiratory and circulatory system, autonomic effects (such as salivation), nervous system (such as tremor, convulsions, stress response and abnormal behavior).
The body of animals was weighed before administration, and then weighed and recorded at the same time each day.
The observation results, animal body weight, and animal survival after one week of administration were recorded in detail every day.

[2] = test system: HCT-116 colon cancer xenografts; test: Tumor growth inhibition of HCT-116 colon cancer xenografts in tumor-bearing nude mice (tumor volume, TGI %, RTV, T/C %); format: in vivo, Balb/c Nude mice
Procedure: 4.1 Tumor cells: colon cancer HCT-116 cells, purchased from the Institute of Cell Biology, Chinese Academy of Sciences. The cells were incubated by F-12 medium (containing 10% FBS) in carbon dioxide incubator at 37° C. and in saturated humidity, with 5% CO2 and 95% air in volume fraction. Before inoculation, the cells at logarithmic phase were taken, and digested with 0.25% trypsin, washed once with PBS and resuspended in PBS for counting. The cells were resuspended in serum-free medium and adjusted to about 3×10^7 cell/mL.
The grouping is as follows:
The formations of tumor at the inoculation site of each group of nude mice were observed. The diameter of tumor nodule (D) was measured three times a week with round hole ruler, and the volume of tumor nodule (V) was calculated according to the following formula: […].
Anti-tumor activity was evaluated by tumor growth inhibition rate TGI (%) and relative tumor proliferation rate T/C (%).
The relative tumor volume (RTV) was calculated as: RTV=Vt/V0, where V0 was the tumor volume when they were grouped and administered, and Vt was the tumor volume at the time of measurement.
The relative proliferation rate T/C (%) was calculated as: […].
TRTV: RTV of the treatment group; CRTV: RTV of the control group.
P<0.05 was considered as significant difference.

[3] = Procedure: To determine the growth inhibition effect and toxicity of the cytidine derivative samples of the present invention on the transplanted tumor of nude mice bearing colon cancer HCT-116.
as §1
Varieties and lines; Balb/c Nude mice; level: SPF; sex: female.
4.2 Animal inoculation and grouping: Each nude mouse was inoculated subcutaneously with 0.1 mL of cell suspension (3×10^6 cell/mouse) at right side of hind limb in a sterile stale. When the tumor grew to about 60-150 mm^3, the nude mice with similar tumor volume and desirable shape were selected (it would be better to select single spherical shape, no irregular shape or multiple tumors grouped together) for grouping, 6 mice a group. The grouping is as follows:
The control group, namely the model control group, was injected with a mixture of ethanol, Cremophor EL, and saline (5:5:90).
Those mice were weighed three times a week.
All clinical symptoms of each animal should be recorded at the beginning of the test and during the test. The observations should be made at the same time each day.
An animal would be killed by CO2 when its weight loss was more than 20%, when it was about to die, or when its tumor volume exceeded 2800 mm^3. The tumor was separated and weighed, and the animal was autopsied and observed to evaluate and record whether there were pathological changes in the organs.
The data were expressed as Mean±SEM unless specially provided; Non-pairing T test was performed for the data between the two groups. P<0.05 was considered as significant difference.

[4] = Day 0, G3-G9 groups, single IP dose, Mean±SEM
[5] = Day 4, G3-G9 groups, single IP dose, Mean±SEM
[6] = Day 6, G3-G9 groups, single IP dose, Mean±SEM
[7] = Day 8, G3-G9 groups, single IP dose, Mean±SEM
[8] = Day 11, G3-G9 groups, single IP dose, Mean±SEM
[9] = Day 13, G3-G9 groups, single IP dose, Mean±SEM
[10] = Day 15, G3-G9 groups, single IP dose, Mean±SEM
[11] = Day 18, G3-G9 groups, single IP dose, Mean±SEM
[12] = Day 20, G3-G9 groups, single IP dose, Mean±SEM
[13] = Day 22, G3-G9 groups, single IP dose, Mean±SEM

O=C(Nc1ccn([C@@H]2O[C@H](CO)[C@@H](O)C2(F)F)c(=O)n1)OCc1ccc([N+](=O)[O-])cc1 [Compound G5, 4-N-(4-nitrocarboxybenzyl)-2′-deoxy-2′,2′-difluorocytidine]
dose that could be tolerated (maximum tolerated dose, MTD) [1]: 300 mg/kg
Day 0 (RTV) [2, 4]: 1.00 ± 0.00
Tumor volume, Day 0 [2, 4]: 65.68 ± 20.50** mm^3
Day 4 (TGI %) ([2]; Day 4, G3-G9 groups, single IP dose): 77.08%
Day 4 (RTV) [2, 5]: 0.89 ± 0.17
Tumor volume, Day 4 [2, 5]: 61.06 ± 22.28** mm^3
Day 6 (TGI %) ([2]; Day 6, G3-G9 groups, single IP dose): 90.77%
Day 6 (RTV) [2, 6]: 0.62 ± 0.08
Tumor volume, Day 6 [2, 6]: 39.01 ± 12.19** mm^3
Day 8 (TGI %) ([2]; Day 8, G3-G9 groups, single IP dose): 93.03%
Day 8 (RTV) [2, 7]: 0.53 ± 0.06
Tumor volume, Day 8 [2, 7]: 36.63 ± 13.03** mm^3
tumor inhibition effect ([2]; Day 8 to Day 13 after single-dose intraperitoneal administration): good tumor inhibition effect
Day 11 (TGI %) ([2]; Day 11, G3-G9 groups, single IP dose): 94.46%
Day 11 (RTV) [2, 8]: 0.60 ± 0.08
Tumor volume, Day 11 [2, 8]: 44.57 ± 18.01** mm^3
Day 13 (TGI %) ([2]; Day 13, G3-G9 groups, single IP dose): 93.46%
Day 13 (RTV) [2, 9]: 1.04 ± 0.14
Tumor volume, Day 13 [2, 9]: 75.90 ± 28.06** mm^3
Day 15 (TGI %) ([2]; Day 15, G3-G9 groups, single IP dose): 90.78%
Day 15 (RTV) [2, 10]: 1.91 ± 0.35
Tumor volume, Day 15 [2, 10]: 130.29 ± 45.17** mm^3
Day 18 (TGI %) ([2]; Day 18, G3-G9 groups, single IP dose): 87.26%
Day 18 (RTV) [2, 11]: 3.76 ± 0.64
Tumor volume, Day 18 [2, 11]: 235.85 ± 70.86** mm^3
Day 20 (TGI %) ([2]; Day 20, G3-G9 groups, single IP dose): 80.09%
Day 20 (RTV) [2, 12]: 8.51 ± 3.10
Tumor volume, Day 20 [2, 12]: 421.94 ± 104.20** mm^3
Day 22 (TGI %) ([2]; Day 22, G3-G9 groups, single IP dose): 74.55%
Day 22 (RTV) [2, 13]: 13.37 ± 4.65
Tumor volume, Day 22 [2, 13]: 665.68 ± 158.57** mm^3
T/C % on Day 22 ([2]; Day 22, G4 350 mg/kg, G5 325 mg/kg, G7 250 mg/kg, single IP): 68.77%
relative tumor volume compared with the model control group ([2]; G4 and G5 Day 4 to Day 18, G7 Day 4 to Day 15 (p<0.05-0.01), G9 only Day 4 (p<0.05)): reduced significantly
maximum value of TGI % ([2]; day of maximum: G3 Day 8, G4 Day 11, G5 Day 11, G9 Day 4, G7 Day 8, single IP): 94.46%
minimum value of T/C % ([2]; day of minimum: G4 Day 13, G5 Day 11, G7 Day 8, single IP): 10.01%
Weight change rate, Day 0 [3, 4]: 0.00 ± 0.00%
Weight of mice, Day 0 [3, 4]: 21.03 ± 0.47 g
weights of animals on Day 4 after administration ([3]; Day 4 (G7: Day 4 and Day 6), p<0.05): significantly reduced
Weight change rate, Day 4 [3, 5]: −8.40 ± 2.65 %
Weight of mice, Day 4 [3, 5]: 19.30 ± 0.85 g
weight loss rate on Day 4 after administration ([3]; Day 4, G4 350 mg/kg, G5 325 mg/kg, G7 250 mg/kg, single IP): less than 10%
Weight change rate, Day 6 [3, 6]: −1.16 ± 2.31%
Weight of mice, Day 6 [3, 6]: 20.82 ± 0.81 g
Weight change rate, Day 8 [3, 7]: 2.81 ± 1.37%
Weight of mice, Day 8 [3, 7]: 21.63 ± 0.62 g
Weight change rate, Day 11 [3, 8]: 4.96 ± 1.42%
Weight of mice, Day 11 [3, 8]: 22.07 ± 0.49 g
Weight change rate, Day 13 [3, 9]: 7.84 ± 1.39 %
Weight of mice, Day 13 [3, 9]: 22.67 ± 0.45 g
Weight change rate, Day 15 [3, 10]: 6.31 ± 1.39 %
Weight of mice, Day 15 [3, 10]: 22.35 ± 0.49 g
Weight change rate, Day 18 [3, 11]: 8.28 ± 1.61 %
Weight of mice, Day 18 [3, 11]: 22.75 ± 0.38 g
Weight change rate, Day 20 [3, 12]: 9.18 ± 1.65 %
Weight of mice, Day 20 [3, 12]: 22.95 ± 0.50 g
Weight change rate, Day 22 [3, 13]: 10.41 ± 2.03%
Weight of mice, Day 22 [3, 13]: 23.20 ± 0.47 g
Day 22 Mortality ([3]; Day 22, single IP dose (mg/kg)): 0%
body weight compared with model control group ([3]; G4 Day 18 to Day 20 (p<0.05), G5 Day 13 to Day 20 (p<0.05~0.01)): significantly increased
clinical symptoms ([3]; after single IP dose, compared with model control group): no significant differences in clinical symptoms
